Legend:
Assay type in all cases: cell-based
[1] = test system: A375 melanoma cell line; test: SRB analysis 3; settings: 48 hours
Procedure: (§1) Through SRB analysis (n=3), the effect of triple combination treatment of a CAC inhibitor (KN510: omeprazole), ACAA inhibitor (KN713: trimetazidine) and other anticancer drug on cell growth in the cancer cells was analyzed. (see Table 11).
(§2) The SRB assay was performed as follows: each cell line (100 μl) was seeded into 96-well microtiter plates at densities ranging from 5,000 to 40,000 cells/well depending on the doubling time of each cell line. After 24 hours, drug (100 μl per well) was added to each well and the culture was incubated at 37° C. for 48 hours. Cells were then fixed in 50% TCA (50 μl per well) and plates were incubated at 4° C. for a minimum of 1 hour or a maximum of 3 hours. After that, the liquid was removed from the plate, then rinsed 5 times with water and dried for approximately 12-24 hours at room temperature (RT). After the fixed cells were stained with 0.4% SRB (100 μl per well) for 10 minutes at room temperature, the plates were washed 3 times with 1% glacial acetic acid and dried at room temperature for about 12-24 hours. SRB staining was dissolved in 10 mM Trizma base and absorbance was read at 515 nm. The effect of the drug was expressed as GI50 (50% growth inhibition), TGI (total growth inhibition) or LC50 (lethal concentration). GI50 is the maximum concentration at the moment of 50% inhibition of cell proliferation and IC50 is the concentration of the drug that inhibits the enzyme activity in vitro by 50% in this study.

[2] = test system: A549 non-small cell lung cancer (NSCLC) cell line; test: SRB analysis 3; settings: 48 hours
Procedure: as §1, §2

[3] = test system: ACHN renal cancer cell line; test: SRB analysis 3; settings: 48 hours
Procedure: as §1, §2

[4] = test system: AGS gastric cancer cell line; test: SRB analysis 3; settings: 48 hours
Procedure: as §1, §2

[5] = test system: AsPC-1 pancreatic cancer (PDAC) cell line; test: SRB analysis 3; settings: 48 hours
Procedure: as §1, §2

[6] = test system: COLO-205 colon cancer cell line; test: SRB analysis 3; settings: 48 hours
Procedure: as §1, §2

[7] = test system: Caki-1 renal cancer cell line; test: SRB analysis 3; settings: 48 hours
Procedure: as §1, §2

[8] = test system: DU145 prostate cancer cell line; test: SRB analysis 3; settings: 48 hours
Procedure: as §1, §2

[9] = test system: H1975 non-small cell lung cancer (NSCLC) cell line; test: SRB analysis 3; settings: 48 hours
Procedure: as §1, §2

[10] = test system: HCT-116 colon cancer cell line; test: SRB analysis 3; settings: 48 hours
Procedure: as §1, §2

[11] = test system: Huh-7 liver cancer cell line; test: SRB analysis 3; settings: 48 hours
Procedure: as §1, §2

[12] = test system: MCF7 breast cancer cell line; test: SRB analysis 3; settings: 48 hours
Procedure: as §1, §2

[13] = test system: MDA-MB-231 breast cancer cell line; test: SRB analysis 3; settings: 48 hours
Procedure: as §1, §2

[14] = test system: MIA PaCa-2 pancreatic cancer (PDAC) cell line; test: SRB analysis 3; settings: 48 hours
Procedure: as §1, §2

[15] = test system: MKN45 gastric cancer cell line; test: SRB analysis 3; settings: 48 hours
Procedure: as §1, §2

[16] = test system: OVCAR-8 ovarian cancer cell line; test: SRB analysis 3; settings: 48 hours
Procedure: as §1, §2

[17] = test system: PC-3 prostate cancer cell line; test: SRB analysis 3; settings: 48 hours
Procedure: as §1, §2

[18] = test system: SK-OV-3 ovarian cancer cell line; test: SRB analysis 3; settings: 48 hours
Procedure: as §1, §2

[19] = test system: SK-hep-1 liver cancer cell line; test: SRB analysis 3; settings: 48 hours
Procedure: as §1, §2

[20] = test system: UACC62 melanoma cell line; test: SRB analysis 3; settings: 48 hours
Procedure: as §1, §2

[21] = test system: T87G glioblastoma (GBM) cell line; test: SRB analysis 3; settings: 48 hours
Procedure: as §2, with “Through SRB analysis (n=3), the effect of triple combination treatment of a CAC inhibitor ([…] inhibitor (KN713: trimetazidine) and other anticancer drug on cell growth in the cancer cells was analyzed. (see Table 11). The” for “The”, “nm.” for “nm. The effect of the drug was expressed as GI50 (50% growth inhibition), TGI (total growth inhibition) or LC50 (lethal concentration). GI50 is the maximum concentration at the moment of 50% inhibition of cell proliferation and IC50 is the concentration of the drug that inhibits the enzyme activity in vitro by 50% in this study.”

[22] = test system: U87MG glioblastoma (GBM) cell line; test: SRB analysis 3; settings: 48 hours
Procedure: as §2, with “Through SRB analysis (n=3), the effect of triple combination treatment of a CAC inhibitor ([…] inhibitor (KN713: trimetazidine) and other anticancer drug on cell growth in the cancer cells was analyzed. (see Table 11). The” for “The”, “nm.” for “nm. The effect of the drug was expressed as GI50 (50% growth inhibition), TGI (total growth inhibition) or LC50 (lethal concentration). GI50 is the maximum concentration at the moment of 50% inhibition of cell proliferation and IC50 is the concentration of the drug that inhibits the enzyme activity in vitro by 50% in this study.”

[23] = test system: cancer cells; test: SRB analysis 3, triple combination, summary over cancer panels
Procedure: as §1, §2

[24] = Breast Cancer, BT-549, MDA MB 231
[25] = Ovarian Cancer, SK-OV-3, OVCAR-3
[26] = Renal cell carcinoma, ACHN, CAKI-1

`Nc1ccn([C@@H]2O[C@H](CO)[C@@H](O)C2(F)F)c(=O)n1` [Gemcitabine] was tested, and the “cell growth (Control = 100)” value ([1]; Gemcitabine 5 μM) was 25.12, the “cell growth (Control = 100)” value ([2]; Gemcitabine 2.5 μM) was 19.65 and the “cell growth (Control = 100)” value ([3]; Gemcitabine 2.5 μM) was −47.9775. The “cell growth (Control = 100)” value ([4]; Gemcitabine 2.5 μM) was 15.95, the “cell growth (Control = 100)” value ([5]; Gemcitabine 2.5 μM) was 20.83 and the “cell growth (Control = 100)” value ([6]; Gemcitabine 2.5 μM) was 6.029. For the same compound, the “cell growth (Control = 100)” value ([7]; Gemcitabine 2.5 μM) was 28.94, the “cell growth (Control = 100)” value ([8]; Gemcitabine 5 μM) was 45.33 and the “cell growth (Control = 100)” value ([9]; Gemcitabine 2.5 μM) was 16.14. For the same compound, the “cell growth (Control = 100)” value ([10]; Gemcitabine 2.5 μM) was 3.788, the “cell growth (Control = 100)” value ([11]; Gemcitabine 2.5 μM) was 33.13 and the “cell growth (Control = 100)” value ([12]; Gemcitabine 2.5 μM) was 12.31. The “cell growth (Control = 100)” value ([13]; Gemcitabine 2.5 μM) was 65.05, the “cell growth (Control = 100)” value ([14]; Gemcitabine 2.5 μM) was 25.9 and the “cell growth (Control = 100)” value ([15]; MKN-45, Gemcitabine 2.5 μM) was 36.14. The “cell growth (Control = 100)” value ([16]; Gemcitabine 2.5 μM) was 21.24, the “cell growth (Control = 100)” value ([17]; Gemcitabine 5 μM) was 48.0 and the “cell growth (Control = 100)” value ([18]; Gemcitabine 2.5 μM) was 24.21. The “cell growth (Control = 100)” value ([19]; Gemcitabine 2.5 μM) was 22.18, the “cell growth (Control = 100)” value ([20]; Gemcitabine 5 μM) was 31.60 and the “cell growth (Control = 100)” value ([21]; Gemcitabine 5 μM) was 53.69. For the same compound, the “cell growth (Control = 100)” value ([22]; Gemcitabine 5 μM) was 3.67, the “Positive/Negative (triple combination of KN510, KN713 and the listed anticancer drug)” value (“Positive/Negative” below) [23, 24] was “negative” and the “Positive/Negative” value ([23]; Colon Cancer, HT-29, COLO-205) was “negative”. The “Positive/Negative” value ([23]; GBM, U87MG, T87G) was “negative”, the “Positive/Negative” value ([23]; Liver Cancer, SNU-449, Huh-7) was “negative” and the “Positive/Negative” value ([23]; NSCLC, A549, H522) was “negative”. The “Positive/Negative” value [23, 25] was “negative”, the “Positive/Negative” value ([23]; PDAC, MIA PaCa-2, PANC-1) was “Positive” and the “Positive/Negative” value ([23]; Prostate Cancer, PC-3, DU-145) was “Positive”. For the same compound, the “Positive/Negative” value [23, 26] was “negative”, the “Positive/Negative” value ([23]; Stomach Cancer, MKN-28, AGS) was “negative” and the “Positive/Negative” value ([23]; melanoma, UACC62, A375) was “Positive”.
With `CCc1c2c(nc3ccc(OC(=O)N4CCC(N5CCCCC5)CC4)cc13)-c1cc3c(c(=O)n1C2)COC(=O)[C@]3(O)CC` [Irinotecan] the “cell growth (Control = 100)” value ([1]; Irinotecan 2.5 μM) was −23.32, the “cell growth (Control = 100)” value ([2]; Irinotecan 2.5 μM) was 17.6 and the “cell growth (Control = 100)” value ([3]; Irinotecan 2.5 μM) was −43.8973. For the same compound, the “cell growth (Control = 100)” value ([4]; Irinotecan 2.5 μM) was 13.58, the “cell growth (Control = 100)” value ([5]; Irinotecan 2.5 μM) was 45.75 and the “cell growth (Control = 100)” value ([6]; Irinotecan 2.5 μM) was 10.02. For the same compound, the “cell growth (Control = 100)” value ([7]; Irinotecan 2.5 μM) was 22.65, the “cell growth (Control = 100)” value ([8]; Irinotecan 5 μM) was 28.6 and the “cell growth (Control = 100)” value ([9]; Irinotecan 2.5 μM) was 25.71. For the same compound, the “cell growth (Control = 100)” value ([10]; Irinotecan 2.5 μM) was −0.3443, the “cell growth (Control = 100)” value ([11]; Irinotecan 2.5 μM) was 15.47 and the “cell growth (Control = 100)” value ([12]; Irinotecan 2.5 μM) was 7.427. The “cell growth (Control = 100)” value ([13]; Irinotecan 2.5 μM) was 78.25, the “cell growth (Control = 100)” value ([14]; Irinotecan 2.5 μM) was 2.59 and the “cell growth (Control = 100)” value ([15]; MKN45, Irinotecan 2.5 μM) was 40.94. The “cell growth (Control = 100)” value ([16]; Irinotecan 2.5 μM) was 36.34, the “cell growth (Control = 100)” value ([17]; Irinotecan 5 μM) was 37.7 and the “cell growth (Control = 100)” value ([18]; Irinotecan 2.5 μM) was 13.57. For the same compound, the “cell growth (Control = 100)” value ([19]; Irinotecan 2.5 μM) was −15.5188, the “cell growth (Control = 100)” value ([20]; Irinotecan 2.5 μM) was −13.35 and the “cell growth (Control = 100)” value ([21]; Irinotecan 2.5 μM) was 71.53. The “cell growth (Control = 100)” value ([22]; Irinotecan 2.5 μM) was 6.31, the “Positive/Negative” value [23, 24] was “Positive” and the “Positive/Negative” value ([23]; Colon Cancer, HT-29, COLO-205) was “negative”. For the same compound, the “Positive/Negative” value ([23]; GBM, U87MG, T87G) was “Positive”, the “Positive/Negative” value ([23]; Liver Cancer, SNU-449, Huh-7) was “negative” and the “Positive/Negative” value ([23]; NSCLC, A549, H522) was “Positive”. The “Positive/Negative” value [23, 25] was “negative”, the “Positive/Negative” value ([23]; PDAC, MIA PaCa-2, PANC-1) was “Positive” and the “Positive/Negative” value ([23]; Prostate Cancer, PC-3, DU-145) was “Positive”. For the same compound, the “Positive/Negative” value [23, 26] was “negative”, the “Positive/Negative” value ([23]; Stomach Cancer, MKN-28, AGS) was “Positive” and the “Positive/Negative” value ([23]; melanoma, UACC62, A375) was “Positive”.

Reference: US12728119B2, “Pharmaceutical composition for preventing or treating cancer comprising 3-ketoacyl CoA thiolase inhibitor and carnitine acylcarnitine carrier inhibitor” (NATIONAL CANCER CENTER, priority 2020, dated 2026)
